Consider 1 molecule from patent publication US20080090916A1, “Compounds for Treating Urinary Incontinence” (priority 2005, published 2008).

Molecules are shown by their SMILES. “Also recorded” adds a separate entry of the source.

Data set [1] has as its system pig vesicourethral junction sphincter muscle. The experiment in a line: Functional assay: dose response on isolated pig vesicourethral junction sphincter muscle strips. The data set is classed as cell-based. The text has this: Samples of female white landrace pig bladder and urethra were obtained from freshly slaughtered pigs at the local abattoir. The pigs were killed by exsanguination after initial stunning by electric shock. The anus, rectum, bladder and urethra were then excised en bloc during evisceration and immediately transferred into pre oxygenated Krebs' solution (1 mmol/l: NaCl 120, KCl 5.9 NaHCO3 15.4, CaCl2 2.5, MgCl2 1.2, glucose 11.5) and transported to the laboratory, where they were stored in the refrigerator (at 4° C.) until ready to be processed.
The location of the vesicourethral junction sphincter was then identified. The bladders were inflated via a transurethral catheter with 200 ml. fluid. The fluid was then gently squeeze towards the outlet, until a sharp narrowing of the bladder base becomes apparent (Dass, 1997; Dass et al., 2001). Tissue sections from this region were then denuded of urothelium, and dissected transversely into a number of muscle strips.
Muscle strips measuring about 5-6 mm by 2-3 mm with an average weight of 7 mg were dissected, fine (5/0) silk threads were tied at each end of the strips and each strip mounted vertically in a 0.2 ml capacity, perspex organ bath between two recessed platinum electrodes through which electrical field stimulation (EFS) could be delivered. Strips were constantly superfused with Krebs' solution (37° C.) at a rate of 1.5 ml 1 min. The Krebs' solutions were gassed with 97% oxygen 3% carbon dioxide. Drugs were delivered by substituting drug containing solutions of the desired concentration for Krebs' solutions.
The apparatus comprised of six organ baths in parallel allowing the study of six strips simultaneously as described by Brading and Sibley (1983). Each channel was calibrated with a 1 g weight attached to the transducer before each experiment, and tissues were tensioned to 1 g after mounting. Isomeric tension generated by the strips was measured using isomeric force displacement transducers, Pioden Dynamometer UFI transducers (Pioden Controls Ltd, Canterbury, Kent) or AD Instruments MLT050/D force transducers, amplified (Harvard Transducer/Amplifier, Harvard Apparatus Ltd, Edenbridge, Kent) and analyzed using MacLab Data Acquisition system (AD Instruments, Sydney, Australia) or AD Instruments OCTAL Bridge Amplifier connected to Power Lab/8SP (AD Instruments, Sydney, Australia) and Chart v3.6 software (Macintosh) or Chart v5 (PC).
Dose response curves for the various compounds were constructed by testing one drug on a pair of strip in each experiment. The preparations were subjected to a sequence of successive 10 s […] applications of increasing doses of drugs with intervening washout periods.
1R,2S-methoxamine hydrochloride, the compound of formula (Ia) and the compound of formula (III) were made available by Norgine International Research, Middlesex.
Responses were reported as either grams of tension or % maximum force and given as mean values ±SEM. EC50 values were used as a measure of potency. The EC50 values were measured from the graph of dose response curve using the kaleidograph graphical software applications. Results were assessed using statistical analysis software, StatView 5.0 (SAS Institute Inc.) using ANOVA followed by Fisher's test. Significant difference between data was assumed with p<0.05.

Data set [2] has as its system Female land race pigs. The experiment in a line: In vivo pig urodynamic model (urodynamic and cardiovascular parameters). On the procedure: The animal model employed in this study was a slight modification of the previously described pig in vivo urodynamic model by Mills (1999). Surgical procedures were performed by Home Office personal licence holders. Female land race pigs of about 60 kg in weight were used for this study.
Pigs were initially sedated with ketamine hydrochloride 15 mg/kg (ketaset, Willows Francis Veterinary, Crawley, UK) and midazolam 0.2 mg/kg (Hypnovel, Roche Products Ltd, Welwyn Garden City, UK) through an intravenous central line. […] The induction phase of general anaesthesia was accomplished with 5% halothane (Fluothane, Astra ZenecaLtd, Macclesfield UK) in nitrous oxide 50%/oxygen 50%, delivered from an anaesthetic machine through a conical mask which was held over the snout of the pig. Following the induction phase, the maintenance phase of general anaesthesia was achieved using intravenous 1% propofol at the rate of 200 mg/hr.
At the start of surgery, the pig was initially placed in the left lateral position allowing access to the lumbar dorsal region. A stab incision for each catheter was made in the lumbar dorsal midline, as well as a single small right iliac fossa incision. Using a specially designed trocar, the peritoneal catheter and the proximal portions of the vesical catheters were tunneled from the dorsal lumbar incision to the right iliac fossa, such that the cuff at the proximal end finished in a small subcutaneous pocket. Each incision was approximated with two interrupted 2/0 nylon sutures, taking care to avoid occlusion of the catheters. The pig was then turned into a supine position and a lower abdominal incision made. Using a Spencer-Well forceps, the peritoneum and abdominal wall muscles were pierced from inside out and three catheters grabbed and pulled into the peritoneal cavity. The longer peritoneal catheter was placed in the vesico-vaginal pouch. Two purse-string sutures of 2/0 silk were placed in the apex of the bladder, and stab incisions made through the centre of each of these. The distal shorter halves of the vesical lines were introduced into the bladder through these incisions and the purse-strings tied, ensuring that the lumen of each catheter remained patent. Each side of the small pieces of silastic sheet on these catheters was sutured to the serosa of the bladder, in order to provide further security against subsequent line displacement. These distal portions of the two vesical catheters were then connected to the proximal portions using the nylon connectors. The abdominal wound was closed en masse with 1 nylon, followed by 2/0 chromic catgut to fat and interrupted 2/0 nylon to the skin. The right iliac fossa wound was closed in layers with vicryl to internal oblique and external oblique and interrupted 2/0 nylon to the skin. One of the vesical lines was attached to another piece of tubing externally and left on free drainage for 48 hours to allow the bladder to heal.
Following induction of anaesthesia, the animal was placed in a supine position and covered with a warm water blanket to maintain body temperature. A small incision was then made in the left groin area through which the left femoral artery was identified by palpation. The artery was then cannulated with an arterial […] cannulae (Abbocath-T, Abbott Ireland, and Sligo, Ireland) which was then connected to a pressure transducer for the measurement of arterial pressure. Vesico-urethral junction cystometry was obtained using a catheter mounted with a microtranducer (Gaeltec LTD, Isle of Skye). To cannulate the urethra, the vagina was opened with a speculum to expose the external urethral orifice which is high up in the anterior wall of the vagina. Having identified the external orifice the catheter was then inserted into the urethra by direct vision, thereafter it was gradually withdrawn until it was positioned in the vesico-urethral junction. […]

The mark [3] stands for this setting: 1 mg/kg iv bolus, mean of three voiding cycles.

For the molecule `COc1ccc(OC)c([C@@H](O)[C@H](C)NC(=O)CC[C@H](N)C(=O)O)c1` [compound of formula (Ia), (S)-2-Amino-4-[(1S,2R)-2-(2,5-dimethoxyphenyl)-2-hydroxy-1-methyl-ethylcarbamoyl]butyric acid], in data set [1] (Sus scrofa, contraction, from dose response curve, read-out: relative potencies (EC50)), the EC50 (commonly the concentration giving half of the maximal effect) worked out at 4.64 mM. Also, in data set [1] (compound alone, FIG. 1), the “contractile response of muscle strip (representative traces)” value is “no significant contraction; also recorded: little or no activity”. In data set [1] (dose range 10^−6M-10^−2M), the “response over the dose range tested” value is “failed to evoke any appreciable response”. In data set [2] (1 mg/kg iv), the “VUJ threshold pressure, greater than control runs” value is on record as “about 31%”; the “duration of voiding, change from control” value was 4.1%; the “fall in deutrusor voiding pressure from the control runs” value amounted to 36.5%; the “flow rate, change from control” value worked out at 2.4%. For the same molecule, the “voiding intervals, change from control” value in data set [2] (1 mg/kg iv) is given as −4.7%. Besides, in data set [2] (setting [3]), the deutrusor voiding pressure was found to be 28±10.11 cmH2O, the “intravesical threshold voiding pressure” value was found to be 16.23±1.16 cmH2O and the “voiding pressure during the voiding phase” value stood at 41.1±8.3 cmH2O. Moreover, the “bladder intravesical baseline pressure” value in data set [2] (1 mg/kg iv bolus, mean of three voiding cycles, one animal) is listed as 8.53±0.34 cmH2O. Further, in data set [2] (1 mg/kg iv, versus control), the “reduction in residual volume” value turned out to be 31% and the “rise in the threshold VUJ voiding pressure” value came to 15%. Moreover, the VUJ baseline pressure result in data set [2] (1 mg/kg iv, versus control runs) is “transient rise”. In data set [2] (1 mg/kg iv, arterial line flushed after dosing), the “arterial pressure, change from the control” value turned out to be 15%. Besides, in data set [2] (1 mg/kg iv, voided volume as percentage of bladder capacity), the voiding efficiency was 95%.
